In brackets after ≈: the same amount, converted by molar mass. Several values for one entry are separate records, joined by “and”; a condition that tells them apart may be missing. Equal values may be shown once.
Key:
Plasmodium falciparum [1] = assay: In vitro antimalarial activity against Plasmodium falciparum W-2 (Indochina); type: functional, organism-based
Plasmodium falciparum [2] = assay: In vitro antimalarial activity against Plasmodium falciparum D6 Sierra Leone; type: functional, organism-based
Mus musculus [3] = assay: Antimalarial activity against Plasmodium berghei in mice (Mus musculus) expressed as number of cures was determined at a dose of 40 mg/kg; type: functional
Mus musculus [4] = assay: Antimalarial activity against Plasmodium berghei in mice (Mus musculus) expressed as number of cures was determined at a dose of 160 mg/kg; type: functional
Mus musculus [5] = assay: Antimalarial activity against Plasmodium berghei in mice (Mus musculus) expressed as number of cures was determined at a dose of 640 mg/kg; type: functional

## C[C@H]1[C@@H](OCCCC(=O)O)O[C@@H]2O[C@]3(C)CC[C@H]4[C@H](C)CC[C@@H]1[C@@]24OO3
Plasmodium falciparum [1]
  IC50: 8.04 ng/mL (≈ 21.7 nM)
Plasmodium falciparum [2]
  IC50: 17.9 ng/mL (≈ 48.3 nM)

## C[C@H]1[C@@H](OCc2ccc(C(=O)O)cc2)O[C@@H]2OC3(C)CC[C@H]4[C@H](C)CC[C@@H]1[C@@]24OO3 (single isomer, unassigned)
Plasmodium falciparum [1]
  IC50: 0.92 ng/mL (≈ 2.2 nM)
Plasmodium falciparum [2]
  IC50: 1.74 ng/mL (≈ 4.16 nM)

## COC(=O)CCCO[C@H]1O[C@@H]2OC3(C)CC[C@H]4[C@H](C)CC[C@@H]([C@H]1C)[C@@]24OO3 (single isomer, unassigned)
Plasmodium falciparum [1]
  IC50: 0.95 ng/mL (≈ 2.47 nM)
Plasmodium falciparum [2]
  IC50: 3.06 ng/mL (≈ 7.96 nM)

## COC(=O)c1ccc(CO[C@H]2O[C@@H]3OC4(C)CC[C@H]5[C@H](C)CC[C@@H]([C@H]2C)[C@@]35OO4)cc1 (single isomer, unassigned)
Plasmodium falciparum [1]
  IC50: 0.37 ng/mL (≈ 0.855 nM)
Plasmodium falciparum [2]
  IC50: 0.77 ng/mL (≈ 1.78 nM)

## COC(=O)CCO[C@H]1O[C@@H]2OC3(C)CC[C@H]4[C@H](C)CC[C@@H]([C@H]1C)[C@@]24OO3 (single isomer, unassigned)
Plasmodium falciparum [1]
  IC50: 0.64 ng/mL (≈ 1.73 nM)
Plasmodium falciparum [2]
  IC50: 1.84 ng/mL (≈ 4.97 nM)

## C[C@H]1[C@@H](OCC(=O)O)O[C@@H]2OC3(C)CC[C@H]4[C@H](C)CC[C@@H]1[C@@]24OO3 (single isomer, unassigned)
Plasmodium falciparum [1]
  IC50: 26.2 ng/mL (≈ 76.6 nM)
Plasmodium falciparum [2]
  IC50: 53.8 ng/mL (≈ 157 nM)

## C[C@H]1[C@@H](OCCCC(=O)O)O[C@@H]2OC3(C)CC[C@H]4[C@H](C)CC[C@@H]1[C@@]24OO3 (single isomer, unassigned)
Plasmodium falciparum [1]
  IC50: 10.5 ng/mL (≈ 28.4 nM)
Plasmodium falciparum [2]
  IC50: 75.5 ng/mL (≈ 204 nM)

## CCOC(=O)CO[C@H]1O[C@@H]2OC3(C)CC[C@H]4[C@H](C)CC[C@@H]([C@H]1C)[C@@]24OO3 (single isomer, unassigned)
Plasmodium falciparum [1]
  IC50: 0.26 ng/mL (≈ 0.702 nM)
Plasmodium falciparum [2]
  IC50: 0.6 ng/mL (≈ 1.62 nM)

## C[C@H]1[C@@H](OCCC(=O)O)O[C@@H]2OC3(C)CC[C@H]4[C@H](C)CC[C@@H]1[C@@]24OO3 (single isomer, unassigned; 7b)
Plasmodium falciparum [1]
  IC50: 23.3 ng/mL (≈ 65.3 nM)
Plasmodium falciparum [2]
  IC50: 85 ng/mL (≈ 239 nM)

## C[C@H]1[C@@H](OCCC(=O)O)O[C@@H]2OC3(C)CC[C@H]4[C@H](C)CC[C@@H]1[C@@]24OO3 (single isomer, unassigned; 8b)
Plasmodium falciparum [1]
  IC50: 35.6 ng/mL (≈ 100 nM)
Plasmodium falciparum [2]
  IC50: 51.7 ng/mL (≈ 145 nM)

## C[C@@H]1[C@H](OCc2ccc(C(=O)O)cc2)O[C@@H]2O[C@@]3(C)CC[C@@H]4[C@@H](C)CC[C@@H]1[C@]24OO3 [ARTELINIC ACID]
Plasmodium falciparum [1]
  IC50: 1.38 ng/mL (≈ 3.3 nM)
Mus musculus [3]
  No. of cures: 5
Mus musculus [4]
  No. of cures: 5
Plasmodium falciparum [2]
  IC50: 4.07 ng/mL (≈ 9.73 nM)
Mus musculus [5]
  No. of cures: 5

## C[C@@H]1CC[C@H]2[C@@H](C)C(=O)O[C@@H]3O[C@@]4(C)CC[C@@H]1[C@]32OO4 [ARTEMISININ]
Plasmodium falciparum [1]
  IC50: 0.66 ng/mL (≈ 2.34 nM)
Mus musculus [3]; 40 mg/kg
  No. of cures: 3 and 2
Mus musculus [4]
  No. of cures: 5
Plasmodium falciparum [2]
  IC50: 2.93 ng/mL (≈ 10.4 nM)
Mus musculus [5]
  No. of cures: 5

## C[C@H]1[C@H](OC(=O)CCC(=O)[O-])O[C@@H]2O[C@@]3(C)CC[C@H]4[C@H](C)CC[C@@H]1[C@@]24OO3.[Na+] [SODIUM ARESUNATE]
Mus musculus [5]
  No. of cures: 5

— ChEMBL document CHEMBL1123552 (J Med Chem, 1987)
